Data: patent US7169756B2, “Streptogramin antibiotics” (priority 2005, dated 2007)
Numbered stars: 1 amine (or outer) side, 2 acyl side, 3 side chain; on linkers, the order of the positions; unused ones are H or OH. Bridge positions count the residues as written; N and C are the ends. Square brackets hold non-standard residues; d marks the D form. Peptide text beside a SMILES is read from it. * marks the point of attachment. X1 = O=C1C[C@@H](C(=O)[*:2])N([*:1])C[C@H]1CS[C@@H]1CN2CCC1CC2; NMePhe(4-NMe2) = CN[C@@H](Cc1ccc(N(C)C)cc1)C(=O)O; Picolinoyl(3-OH) = O=C(c1ncccc1O)*; Phg = N[C@H](C(=O)O)c1ccccc1; Orn = NCCC[C@H](N)C(=O)O; dAbu = CC[C@@H](N)C(=O)O; Dap = NC[C@H](N)C(=O)O

Legend:
[1] = test system: S. saprophyticus (ATCC 15305); assay: disk assay, zone of growth inhibition; type: cell-based, Staphylococcus saprophyticus
Procedure: The antibiotic activity of the peptides synthesized in this study was initially assayed using a disk assay where samples were applied to sterile paper disks placed on a fresh lawn of bacterial culture on appropriate agar plates as required by the organism. These were then incubated for 16 hr at 37° C. and the zone of growth inhibition surrounding the disks recorded. For quantitative assessment of antibiotic activity in liquid culture, the minimal inhibitory concentration (MIC) of peptides was determined by serial dilution studies. The peptides and standard antibiotics were dissolved in DMSO and the final concentration of DMSO in the liquid cultures was 5%. Both S. aureus RN4220 and E. coli BAS901 were able to grow efficiently at this level of DMSO.
Crude material from the initial synthesis reactions was used to test the potential of the analogues as antibiotics in susceptibility assays where a solution of the compound was placed on a paper disk on a lawn of bacteria. As described above, E. coli BAS901 is deficient in the Imp/OstA protein, an outer membrane protein, involved in cell envelope biogenesis (1, 5). […] These were then incubated for 16 hrs at 37° C. and the zone of growth inhibition surrounding the disks recorded.

Vgb = target: T1, Vgb (Staphylococcus aureus, UniProt P17978); assay: inhibition of the streptogramin inactivating enzyme Vgb; type: biochemical; conditions: concentrations of up to 0.4 mM
T1 construct: made in house
Procedure: On-resin chemical cyclization of 5 provided sufficient material for more extensive analysis of antibacterial activity and investigation of its ability to inhibit the streptogramin inactivating enzyme Vgb. This enzyme however was insensitive to 5 in concentrations of up to 0.4 mM. […] Regardless of the actual mechanism, the design of these streptogramin-tyrocidine chimeras of the present invention result in antibiotics that are not recognized by a streptogramin inactivation enzyme.

E. coli BAS901 = assay: bacteriostatic or bactericidal action; type: cell-based, Escherichia coli

T1 sequence (P17978 whole entry): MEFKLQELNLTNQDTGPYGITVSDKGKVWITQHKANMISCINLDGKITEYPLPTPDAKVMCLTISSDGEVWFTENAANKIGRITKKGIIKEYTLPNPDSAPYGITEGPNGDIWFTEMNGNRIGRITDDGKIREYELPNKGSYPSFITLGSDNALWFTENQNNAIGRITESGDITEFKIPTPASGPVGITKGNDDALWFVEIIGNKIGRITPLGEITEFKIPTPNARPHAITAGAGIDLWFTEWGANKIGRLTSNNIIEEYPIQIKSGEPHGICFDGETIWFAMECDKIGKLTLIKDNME

## CC[C@H]1NC(=O)[C@@H](NC(=O)c2ncccc2O)[C@@H](C)OC(=O)[C@H](c2ccccc2)NC(=O)[C@@H]2CC(=O)[C@H](CS[C@@H]3CN4CCC3CC4)CN2C(=O)[C@H](Cc2ccc(N(C)C)cc2)N(C)C(=O)[C@@H]2CCCN2C1=O [Quinupristin, quinupristin, reference compound] ({Picolinoyl(3-OH)}-T[dAbu]P[NMePhe(4-NMe2)][X1][Phg]; ester 1-C)
[1]
  Zone of Inhibition: 2.3 cm

## CC(C)C[C@@H]1NC(=O)[C@H](CCCN)NC(=O)[C@H]([C@@H](C)O)NC(=O)[C@@H](NC(=O)c2ncccc2O)CNC(=O)[C@H](Cc2ccccc2)NC(=O)[C@@H]2CCCN2C(=O)[C@@H](Cc2ccccc2)NC1=O [Compound 5] ({Picolinoyl(3-OH)}-[Dap]T[Orn]L[dF]PF; lactam 1-C)
Vgb
  inhibition of Vgb: insensitive
E. coli BAS901
  bacteriostatic or bactericidal: bacteriostatic and not bactericidal
